For this assay, the system named is IFNα-Induced STAT Phosphorylation in Human Whole Blood. Put plainly: IFNα-Induced STAT Phosphorylation in Human Whole Blood. The following applies: 1 h incubation with compound, 1000 U/mL recombinant human IFNα A/D for 15 min, pSTAT5 (pY694) median fluorescence intensity in CD3 positive population, read-out: hWB IC50. The assay is classed as cell-based. As to the method:
IFNα-Induced STAT Phosphorylation in Human Whole Blood
After an hour long incubation with compound, human whole blood (drawn with either EDTA or ACD-A as anti-coagulant) was stimulated with 1000 U/mL recombinant human IFNα A/D (R&D Systems 11200-2) for 15 min. The stimulation was stopped by adding Fix/Lyse buffer (BD 558049). Cells were stained with a CD3 FITC antibody (BD 555916), washed, and permeabilized on ice using Perm III buffer (BD 558050). […] The amount of pSTAT5 expression was quantitated by median fluorescence intensity after gating on the CD3 positive population.
IFNα-Induced STAT Phosphorylation in Human Whole Blood Inhibition Data

For `[2H]C([2H])([2H])NC(=O)c1nnc(NC(=O)C2CC2)cc1Nc1cccc(-c2ccc(S(C)(=O)=O)cn2)c1OC` [Example 110], the half-maximal inhibitory concentration (IC50) amounted to 480 nM. For the compound `[2H]C([2H])([2H])NC(=O)c1nnc(Nc2cc(C(C)(C)O)n(C)n2)cc1Nc1cc(F)cc(-c2ncc(F)cn2)c1OC` [Example 83, 4-((5-fluoro-3-(5-fluoropyrimidin-2-yl)-2-methoxyphenyl)amino)-6-((5-(2-hydroxypropan-2-yl)-1-methyl-1H-pyrazol-3-yl)amino)-N-(methyl-d3)pyridazine-3-carboxamide], the IC50 was found to be 77 nM. Consider `[2H]C([2H])([2H])NC(=O)c1nnc(NC(=O)C2CC2)cc1Nc1cccc(-c2cnc(C(=O)N3CCOCC3)cn2)c1OC` [Example 38, 6-(cyclopropanecarboxamido)-4-((2-methoxy-3-(5-(morpholine-4-carbonyl)pyrazin-2-yl)phenyl)amino)-N-(methyl-d3)pyridazine-3-carboxamide], for which the IC50 worked out at 44 nM. With `[2H]C([2H])([2H])NC(=O)c1nnc(NC(=O)C2CC2)cc1Nc1cccc(-c2ncc(C(=O)N3CCCC3)cn2)c1OC` [Example 47, 6-(cyclopropanecarboxamido)-4-((2-methoxy-3-(5-(pyrrolidine-1-carbonyl)pyrimidin-2-yl)phenyl)amino)-N-(methyl-d3)pyridazine-3-carboxamide], the IC50 was determined as 126 nM. The same measure for `[2H]C([2H])([2H])NC(=O)c1nnc(NC(=O)C2CC2)cc1Nc1cccc(-c2nccc(C#N)n2)c1OC` [Example 3, 4-((3-(4-cyanopyrimidin-2-yl)-2-methoxyphenyl)amino)-6-(cyclopropanecarboxamido)-N-(methyl-d3)pyridazine-3-carboxamide]: 144 nM; for `[2H]C([2H])([2H])NC(=O)c1nnc(Nc2ccc(C(F)(F)F)nn2)cc1Nc1cccc(-c2ncccn2)c1OC` [Example 98, 4-((2-methoxy-3-(pyrimidin-2-yl)phenyl)amino)-N-(methyl-d3)-6-((6-(trifluoromethyl)pyridazin-3-yl)amino)pyridazine-3-carboxamide]: 112 nM. As for `[2H]C([2H])([2H])NC(=O)c1nnc(NC(=O)C2CC2)cc1Nc1cccc(-c2ncc(N3CCN(C)C3=O)cn2)c1OC` [Example 116], the concentration for half-maximal inhibition (IC50) amounted to 73 nM. The same measure for `[2H]C([2H])([2H])NC(=O)c1nnc(Nc2ccc(C#N)nn2)cc1Nc1cccc(-c2ncc(F)cn2)c1OC` [Example 95, 6-((6-cyanopyridazin-3-yl)amino)-4-((3-(5-fluoropyrimidin-2-yl)-2-methoxyphenyl)amino)-N-(methyl-d3)pyridazine-3-carboxamide]: 182 nM; for `[2H]C([2H])([2H])NC(=O)c1nnc(NC(=O)C2CC2)cc1Nc1cc(F)cc(-c2ncc(C(C)(O)CF)cn2)c1OC` (stereo not drawn) [Example 32, 6-(cyclopropanecarboxamido)-4-((5-fluoro-3-(5-(1-fluoro-2-hydroxypropan-2-yl)pyrimidin-2-yl)-2-methoxyphenyl)amino)-N-(methyl-d3)pyridazine-3-carboxamide]: 71 nM. As for `[2H]C([2H])([2H])NC(=O)c1nnc(Nc2ccc(C(C)(C)O)cn2)cc1Nc1cccc(-c2ncc(F)cn2)c1OC` [Example 103, 4-((3-(5-fluoropyrimidin-2-yl)-2-methoxyphenyl)amino)-6-((5-(2-hydroxypropan-2-yl)pyridin-2-yl)amino)-N-(methyl-d3)pyridazine-3-carboxamide], the IC50 is 79 nM. Take `[2H]C([2H])([2H])NC(=O)c1cnc(Nc2cc(Cl)n(C)n2)cc1Nc1cccc(-c2ncc(F)cn2)c1OC` [Example 66, 6-((5-chloro-1-methyl-1H-pyrazol-3-yl)amino)-4-((3-(5-fluoropyrimidin-2-yl)-2-methoxyphenyl)amino)-N-(methyl-d3)nicotinamide]: the IC50 worked out at 146 nM.

Consider `[2H]C([2H])([2H])NC(=O)c1nnc(NC(=O)C2CC2)cc1Nc1cccc(-c2cc(=O)n(C)cn2)c1OC` [Example 12, 6-(cyclopropanecarboxamido)-4-((2-methoxy-3-(1-methyl-6-oxo-1,6-dihydropyrimidin-4-yl)phenyl)amino)-N-(methyl-d3)pyridazine-3-carboxamide], for which the IC50 came out at 204 nM. For `[2H]C([2H])([2H])NC(=O)c1cnc(NC(=O)C2CC2)cc1Nc1cccc(-c2ncc(F)cc2C#N)c1OC` [Example 115], the IC50 is 682 nM. `[2H]C([2H])([2H])NC(=O)c1nnc(Nc2cc3n(n2)CCN(C)C3=O)cc1Nc1cccc(-c2ncc(F)cn2)c1OC` [Example 107, 4-((3-(5-Fluoropyrimidin-2-yl)-2-methoxyphenyl)amino)-N-(methyl-d3)-6-((5-methyl-4-oxo-4,5,6,7-tetrahydropyrazolo[1,5-a]pyrazin-2-yl)amino)pyridazine-3-carboxamide]: the IC50 worked out at 81 nM. Regarding `[2H]C([2H])([2H])NC(=O)c1nnc(Nc2cc(C(C)(C)O)n(C)n2)cc1Nc1cc(F)cc(-c2ncccn2)c1OC` [Example 84, 4-((5-fluoro-2-methoxy-3-(pyrimidin-2-yl)phenyl)amino)-6-((5-(2-hydroxypropan-2-yl)-1-methyl-1H-pyrazol-3-yl)amino)-N-(methyl-d3)pyridazine-3-carboxamide], the IC50 was 19 nM.

As for `[2H]C([2H])([2H])NC(=O)c1cnc(NC(=O)C2CC2)cc1Nc1cccc(-c2ncc(N3CCOCC3)cn2)c1OC` [Example 16, 6-(cyclopropanecarboxamido)-4-((2-methoxy-3-(5-morpholinopyrimidin-2-yl)phenyl)amino)-N-(methyl-d3)nicotinamide], the half-inhibitory concentration (IC50) is 54 nM. With `[2H]C([2H])([2H])NC(=O)c1nnc(NC(=O)C2CC2)cc1Nc1cccc(-c2ncc(C#N)cn2)c1OC` [Example 2, 4-((3-(5-cyanopyrimidin-2-yl)-2-methoxyphenyl)amino)-6-(cyclopropanecarboxamido)-N-(methyl-d3)pyridazine-3-carboxamide], the IC50 was 426 nM. Consider `[2H]C([2H])([2H])NC(=O)c1nnc(NC(=O)C2CCC2)cc1Nc1cccc(-c2ncccn2)c1OC` [Example 4, 6-(cyclobutanecarboxamido)-4-((2-methoxy-3-(pyrimidin-2-yl)phenyl)amino)-N-(methyl-d3)pyridazine-3-carboxamide], for which the half-maximal inhibitory concentration (IC50) amounted to 348 nM. As to `[2H]C([2H])([2H])NC(=O)c1nnc(Nc2ccc(C(C)(C)O)cn2)cc1Nc1cc(F)cc(-c2ncccn2)c1OC` [Example 104, 4-((5-fluoro-2-methoxy-3-(pyrimidin-2-yl)phenyl)amino)-6-((5-(2-hydroxypropan-2-yl)pyridin-2-yl)amino)-N-(methyl-d3)pyridazine-3-carboxamide], the IC50 came to 41 nM. The same measure for `[2H]C([2H])([2H])NC(=O)c1cnc(NC(=O)C2CC2)cc1Nc1cccc(-c2cnc(-n3cncn3)cn2)c1OC` [Example 60, 4-((3-(5-(1H-1,2,4-triazol-1-yl)pyrazin-2-yl)-2-methoxyphenyl)amino)-6-(cyclopropanecarboxamido)-N-(methyl-d3)nicotinamide]: 1040 nM; for `[2H]C([2H])([2H])NC(=O)c1nnc(Nc2ccn(C3CC3)n2)cc1Nc1cccc(-c2ncc(F)cn2)c1OC` [Example 78, 6-((1-cyclopropyl-1H-pyrazol-3-yl)amino)-4-((3-(5-fluoropyrimidin-2-yl)-2-methoxyphenyl)amino)-N-(methyl-d3)pyridazine-3-carboxamide]: 192 nM.

By IC50 is commonly meant the point on the concentration scale where inhibition reaches its midpoint.

(Values after patent publication US12479831B2, “Substituted N(-methyl-D3)pyridazine-3-carboxamide or M-(methyl-D3)-nicotinamide compounds as IL-12, IL-23 and/or IFNα modulators” (BRISTOL-MYERS SQUIBB COMPANY, priority 2020, dated 2025).)
